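Exposure lasted 48 hours, with cells grown in 96-well plates and compounds tested at five concentrations. GI50 is the concentration that inhibits growth by half.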 Active and inactive are the calls of the source. Cut-off read from the data, not from the text of the source: active = GI50 up to about 1.1 µM and inactive = higher.
Experiments:
Assay in all cases: NCI anticancer screen, dose series, 48 h
MCF7 = test system: MCF7
A498 = test system: A498
MDA-N = test system: MDA-N
OVCAR-3 = test system: OVCAR-3
Malme-3M = test system: Malme-3M
IGROV-1 = test system: IGROV-1
HCT-15 = test system: HCT-15
A549 = test system: A549
PC-3 = test system: PC-3
ACHN = test system: ACHN
UACC-257 = test system: UACC-257
T47D = test system: T47D
OVCAR-4 = test system: OVCAR-4
SN12C = test system: SN12C
NCI-H460 = test system: NCI-H460
BT-549 = test system: BT-549
NCI-H226 = test system: NCI-H226
MDA-MB-435 = test system: MDA-MB-435
RXF 393 = test system: RXF 393
U-251 = test system: U-251
OVCAR-8 = test system: OVCAR-8
HOP-92 = test system: HOP-92
SK-OV-3 = test system: SK-OV-3
DU-145 = test system: DU-145
CAKI-1 = test system: CAKI-1
SK-MEL-2 = test system: SK-MEL-2
SF-295 = test system: SF-295
Hs-578T = test system: Hs-578T
NCI-H23 = test system: NCI-H23
NCI/ADR-RES = test system: NCI/ADR-RES
M14 = test system: M14
HCT-116 = test system: HCT-116
SK-MEL-5 = test system: SK-MEL-5
UO-31 = test system: UO-31
COLO 205 = test system: COLO 205
K562 = test system: K562
TK-10 = test system: TK-10
SK-MEL-28 = test system: SK-MEL-28
MOLT-4 = test system: MOLT-4
NCI-H522 = test system: NCI-H522
KM12 = test system: KM12
RPMI-8226 = test system: RPMI-8226
EKVX = test system: EKVX
SF-268 = test system: SF-268
HOP-62 = test system: HOP-62
786-0 = test system: 786-0
HT-29 = test system: HT-29
SF-539 = test system: SF-539
HL-60 = test system: HL-60
SW-620 = test system: SW-620
OVCAR-5 = test system: OVCAR-5
CCRF-CEM = test system: CCRF-CEM
SNB-75 = test system: SNB-75
MDA-MB-231 = test system: MDA-MB-231
LOX IMVI = test system: LOX IMVI
SNB-19 = test system: SNB-19
SR = test system: SR
HCC 2998 = test system: HCC 2998
UACC-62 = test system: UACC-62

NC(=S)N/N=C\c1ccc(OCc2cccc(COc3ccc(/C=N/NC(N)=S)cc3)n2)cc1
GI50 (MCF7): 32.5 µM (inactive) | GI50 (A498): > 100 µM (inactive) | GI50 (MDA-N): 56.8 µM (inactive) | GI50 (OVCAR-3): 32.7 µM (inactive) | GI50 (Malme-3M): 86.5 µM (inactive) | GI50 (IGROV-1): 14.8 µM (inactive) | GI50 (HCT-15): 43.7 µM | GI50 (A549): > 100 µM (inactive) | GI50 (PC-3): 21.6 µM (inactive) | GI50 (ACHN): 9.53 µM (inactive) | GI50 (UACC-257): 20.2 µM (inactive) | GI50 (T47D): 0.164 µM (active) | GI50 (OVCAR-4): 44.2 µM (inactive) | GI50 (SN12C): > 100 µM (inactive) | GI50 (NCI-H460): > 100 µM (inactive) | GI50 (BT-549): 2.39 µM (inactive) | GI50 (NCI-H226): > 100 µM (inactive) | GI50 (MDA-MB-435): 63.8 µM (inactive) | GI50 (RXF 393): 1.63 µM (inactive) | GI50 (U-251): 45.4 µM (inactive) | GI50 (OVCAR-8): > 100 µM (inactive) | GI50 (HOP-92): > 100 µM (inactive) | GI50 (SK-OV-3): > 100 µM (inactive) | GI50 (DU-145): 34.8 µM (inactive) | GI50 (CAKI-1): 17 µM (inactive) | GI50 (SK-MEL-2): 12.5 µM (inactive) | GI50 (SF-295): > 100 µM (inactive) | GI50 (Hs-578T): > 100 µM (inactive) | GI50 (NCI-H23): 69.3 µM (inactive) | GI50 (NCI/ADR-RES): > 100 µM (inactive) | GI50 (M14): 43.4 µM (inactive) | GI50 (HCT-116): 12 µM (inactive) | GI50 (SK-MEL-5): 5.06 µM (inactive) | GI50 (UO-31): 15.3 µM (inactive) | GI50 (COLO 205): 5.73 µM (inactive) | GI50 (K562): 18.6 µM (inactive) | GI50 (TK-10): 76.7 µM (inactive) | GI50 (SK-MEL-28): 22.9 µM (inactive) | GI50 (MOLT-4): 34.7 µM (inactive) | GI50 (NCI-H522): 2.88 µM (inactive) | GI50 (KM12): > 100 µM (inactive) | GI50 (RPMI-8226): 4.33 µM (inactive) | GI50 (EKVX): > 100 µM (inactive) | GI50 (SF-268): > 100 µM (inactive) | GI50 (HOP-62): > 100 µM (inactive) | GI50 (786-0): > 100 µM (inactive) | GI50 (HT-29): > 100 µM (inactive) | GI50 (SF-539): > 100 µM (inactive) | GI50 (HL-60): 10.5 µM (inactive) | GI50 (SW-620): > 100 µM (inactive) | GI50 (OVCAR-5): 17.3 µM (inactive) | GI50 (CCRF-CEM): 45.7 µM (inactive) | GI50 (SNB-75): > 100 µM (inactive) | GI50 (MDA-MB-231): 5.25 µM (inactive) | GI50 (LOX IMVI): > 100 µM (inactive) | GI50 (SNB-19): > 100 µM (inactive) | GI50 (SR): 38.7 µM (inactive)

O=S(=O)(c1ccccc1)N1CCN(S(=O)(=O)c2ccccc2)c2ccccc21
GI50 (MCF7): 91.8 µM (inactive) | GI50 (A498): > 100 µM (inactive) | GI50 (MDA-N): 89.5 µM (inactive) | GI50 (OVCAR-3): > 100 µM (inactive) | GI50 (Malme-3M): > 100 µM (inactive) | GI50 (IGROV-1): > 100 µM (inactive) | GI50 (HCT-15): 92.7 µM | GI50 (A549): > 100 µM (inactive) | GI50 (PC-3): > 100 µM (inactive) | GI50 (ACHN): > 100 µM (inactive) | GI50 (UACC-257): 75.5 µM (inactive) | GI50 (T47D): > 100 µM (inactive) | GI50 (OVCAR-4): > 100 µM (inactive) | GI50 (SN12C): > 100 µM (inactive) | GI50 (NCI-H460): > 100 µM (inactive) | GI50 (BT-549): > 100 µM (inactive) | GI50 (NCI-H226): > 100 µM (inactive) | GI50 (MDA-MB-435): > 100 µM (inactive) | GI50 (RXF 393): > 100 µM (inactive) | GI50 (U-251): > 100 µM (inactive) | GI50 (OVCAR-8): > 100 µM (inactive) | GI50 (HCC 2998): > 100 µM (inactive) | GI50 (HOP-92): > 100 µM (inactive) | GI50 (SK-OV-3): > 100 µM (inactive) | GI50 (DU-145): > 100 µM (inactive) | GI50 (CAKI-1): > 100 µM (inactive) | GI50 (SK-MEL-2): > 100 µM (inactive) | GI50 (SF-295): 81.8 µM (inactive) | GI50 (Hs-578T): > 100 µM (inactive) | GI50 (NCI-H23): 52.1 µM (inactive) | GI50 (NCI/ADR-RES): 95.7 µM (inactive) | GI50 (M14): 96.6 µM (inactive) | GI50 (HCT-116): 45.2 µM (inactive) | GI50 (SK-MEL-5): 73.3 µM (inactive) | GI50 (UO-31): > 100 µM (inactive) | GI50 (COLO 205): > 100 µM (inactive) | GI50 (K562): 96.4 µM (inactive) | GI50 (TK-10): > 100 µM (inactive) | GI50 (SK-MEL-28): > 100 µM (inactive) | GI50 (NCI-H522): 42.5 µM (inactive) | GI50 (KM12): > 100 µM (inactive) | GI50 (RPMI-8226): > 100 µM (inactive) | GI50 (EKVX): 31 µM (inactive) | GI50 (SF-268): > 100 µM (inactive) | GI50 (HOP-62): > 100 µM (inactive) | GI50 (786-0): > 100 µM (inactive) | GI50 (HT-29): 93.5 µM (inactive) | GI50 (SF-539): > 100 µM (inactive) | GI50 (SW-620): > 100 µM (inactive) | GI50 (OVCAR-5): > 100 µM (inactive) | GI50 (SNB-75): > 100 µM (inactive) | GI50 (MDA-MB-231): > 100 µM (inactive) | GI50 (UACC-62): 64.7 µM (inactive) | GI50 (LOX IMVI): > 100 µM (inactive) | GI50 (SNB-19): > 100 µM (inactive) | GI50 (SR): > 100 µM (inactive)

O=C(N/N=C/c1ccc([N+](=O)[O-])o1)c1ccc(C(=O)N/N=C/c2ccc([N+](=O)[O-])o2)cc1
GI50 (MCF7): 15.7 µM (inactive) | GI50 (A498): 8.87 µM (inactive) | GI50 (MDA-N): 20.7 µM (inactive) | GI50 (OVCAR-3): 26.1 µM (inactive) | GI50 (Malme-3M): 21.2 µM (inactive) | GI50 (IGROV-1): 30.7 µM (inactive) | GI50 (HCT-15): 29.8 µM | GI50 (A549): 45.5 µM (inactive) | GI50 (PC-3): 64.7 µM (inactive) | GI50 (ACHN): 10.2 µM (inactive) | GI50 (T47D): 41.3 µM (inactive) | GI50 (OVCAR-4): 45 µM (inactive) | GI50 (SN12C): 42.8 µM (inactive) | GI50 (BT-549): > 100 µM (inactive) | GI50 (NCI-H226): > 100 µM (inactive) | GI50 (MDA-MB-435): 16.2 µM (inactive) | GI50 (RXF 393): 36.6 µM (inactive) | GI50 (U-251): 50.2 µM (inactive) | GI50 (OVCAR-8): 28.4 µM (inactive) | GI50 (HOP-92): 53.8 µM (inactive) | GI50 (SK-OV-3): > 100 µM (inactive) | GI50 (DU-145): 64.4 µM (inactive) | GI50 (CAKI-1): 35.4 µM (inactive) | GI50 (SK-MEL-2): 74.5 µM (inactive) | GI50 (SF-295): 40.4 µM (inactive) | GI50 (Hs-578T): > 100 µM (inactive) | GI50 (NCI-H23): 42.3 µM (inactive) | GI50 (NCI/ADR-RES): 73.3 µM (inactive) | GI50 (M14): 35.5 µM (inactive) | GI50 (HCT-116): 30.1 µM (inactive) | GI50 (SK-MEL-5): 22.6 µM (inactive) | GI50 (UO-31): > 100 µM (inactive) | GI50 (COLO 205): 28.1 µM (inactive) | GI50 (K562): 34.4 µM (inactive) | GI50 (SK-MEL-28): 13.2 µM (inactive) | GI50 (MOLT-4): 23.8 µM (inactive) | GI50 (NCI-H522): 48.3 µM (inactive) | GI50 (KM12): 28.5 µM (inactive) | GI50 (RPMI-8226): 2.55 µM (inactive) | GI50 (EKVX): > 100 µM (inactive) | GI50 (SF-268): 64.7 µM (inactive) | GI50 (HOP-62): 47.8 µM (inactive) | GI50 (786-0): 76.2 µM (inactive) | GI50 (HT-29): 38.6 µM (inactive) | GI50 (SF-539): 14.9 µM (inactive) | GI50 (HL-60): 21.7 µM (inactive) | GI50 (SW-620): 22.4 µM (inactive) | GI50 (OVCAR-5): > 100 µM (inactive) | GI50 (CCRF-CEM): 14.8 µM (inactive) | GI50 (SNB-75): > 100 µM (inactive) | GI50 (MDA-MB-231): > 100 µM (inactive) | GI50 (UACC-62): 13.8 µM (inactive) | GI50 (LOX IMVI): 34.2 µM (inactive) | GI50 (SNB-19): 51.4 µM (inactive) | GI50 (SR): 29.8 µM (inactive)

From ChEMBL document CHEMBL1201862, “PubChem BioAssay data set” (2004)
